Data taken from patent US20030134305A1, “Method for the enumeration of mammalian micronucleated erythrocyte populations with a single-laser flow cytometer” (priority 2001, published 2003).
Values joined by “and” are separate entries in the source; they are usually repeats but may differ in a detail not shown here. Identical values can stand only once.

Test system: rat peripheral blood erythrocyte populations
Conditions: male rat, oral, 10 mg/kg body weight/day for 6 days
[1] = tail vein blood ~24 hours after final administration, single replicate, 10 mg/kg/day

With `O=P1(N(CCCl)CCCl)NCCCO1` (centres unmarked) [cyclophosphamide] the “% RET^CD71+ (CD71-positive reticulocytes)” value (tail vein blood ~24 hours after final administration, single replicate, 20,000 RETs per replicate) was 2.66% and 2.72% and 2.57%, the “% MN-NCE (micronucleated normochromatic erythrocytes)” value [1] was 0.05% and 0.04% (2×) and the “% MN-RET^CD71+ (micronucleated CD71-positive reticulocytes)” value [1] was 0.73% and 0.64% and 0.63%. The “% MN-NCE (micronucleated normochromatic erythrocytes), Avg.” value (Avg. of 3 replicates) was 0.04%, the “% MN-RET^CD71+ (micronucleated CD71-positive reticulocytes), Avg.” value (Avg. of 3 replicates) was 0.67% and the “% RET^CD71+ (CD71-positive reticulocytes), Avg.” value (Avg. of 3 replicates) was 2.65%. For the same molecule, the “DNA-breaking activity: MN-RET^CD71+ frequency versus water-treated rat” value (result in words) was “increased” and the “cytostatic effect: RET^CD71+ frequency versus water-treated rat” value (result in words) was “decreased”.
